Experimental data from patent publication US20110224208A1, “NOVEL INHIBITORS OF FLAVIVIRUS REPLICATION” (KATHOLIEKE UNIVERSITEIT LEUVEN, K.U. LEUVEN R&D, priority 2008, published 2011).
Values after ≈ are worked out from the molar mass of the structure shown.

Legend:
[1] = test system: HCV replicon I389luc-ubi-neo/NS3-3'/5.1; assay: Anti-HCV replicon assay (luciferase activity) in Huh-5-2 cells; format: cell-based, Hepatitis C virus; conditions: Hepatitis C virus, Huh-5-2, 72 h, concentration required to inhibit luciferase activity in the replicon system by 50%
Description: (§1) Cells were seeded at a density of 7000 cells per well in 96 well View Plate™ (Packard) in medium containing the same components as described above, except for G418. Cells were allowed to adhere and proliferate for 24 hr. At that time, culture medium was removed and serial dilutions of the test compounds were added in culture medium lacking G418. Interferon alfa 2a (500 IU) was included as a positive control. Plates were further incubated at 37° C. and 5% CO2 for 72 hours. Replication of the HCV replicon in Huh-5 cells results in luciferase activity in the cells. Luciferase activity is measured by adding 50 μl of 1×Glo-lysis buffer (Promega) for 15 minutes followed by 50 ul of the Steady-Glo Luciferase assay reagent (Promega). Luciferase activity is measured with a luminometer and the signal in each individual well is expressed as a percentage of the untreated cultures. […] Instead the density of the culture is measured by means of the MTS method (Promega).

[2] = Proliferation of exponentially growing Huh-5-2 cells (MTS method); conditions: human, CC50, concentration required to inhibit the proliferation of exponentially growing Huh-5-2 cells by 50%; Table 2
Description: as §1

Row | SMILES | IC50 [1] [µg/mL] | CC50 at 72 h [2] [µg/mL]
1 | COCCN1C(=O)c2ccccc2C(C(=O)Nc2ccc3c(c2)OCCO3)C1c1cccs1 (stereo not drawn) [C117, N-(2,3-dihydrobenzo[b][1,4]dioxin-6-yl)-2-(2-methoxyethyl)-1-oxo-3-(thiophen-2-yl)-1,2,3,4-tetrahydroisoquinoline-4-carboxamide] | 0.36 (≈ 0.775 µM) | 81.9 (≈ 176 µM)
2 | COCCN1C(=O)c2ccccc2C(C(=O)n2c(=O)oc3ccc(N)cc32)C1c1cccs1 (stereo not drawn) [C207, 5-amino-3-(−2-(2-methoxyethyl)-1-oxo-3-(thiophen-2-yl)-1,2,3,4-tetrahydroisoquinoline-4-carbonyl)benzo[d]oxazol-2(3H)-one] | 27.4 (≈ 59.2 µM) | 72.3 (≈ 156 µM)
3 | COc1cccc(NC(=O)C2c3ccccc3C(=O)N(CCO)C2c2cccs2)c1 (stereo not drawn) [C23, 2-(2-Hydroxyethyl)-N-(3-methoxyphenyl)-1-oxo-3-(thiophen-2-yl)-1,2,3,4-tetrahydroisoquinoline-4-carboxamide] | 43 (≈ 102 µM) | 118 (≈ 280 µM)
4 | COCCN1C(=O)c2ccccc2C(C(=O)Nc2ccc(Cn3cccn3)cc2)C1c1cccs1 (stereo not drawn) [C174, N-(4-((1H-pyrazol-1-yl)methyl)phenyl)-2-(2-methoxyethyl)-1-oxo-3-(thiophen-2-yl)-1,2,3,4-tetrahydroisoquinoline-4-carboxamide] | 0.15 (≈ 0.308 µM) | 43 (≈ 88.3 µM)
5 | CCc1nnc(NC(=O)C2c3ccccc3C(=O)N(CCOC)C2c2cccs2)o1 (stereo not drawn) [C125, N-(5-ethyl-1,3,4-oxadiazol-2-yl)-2-(2-methoxyethyl)-1-oxo-3-(thiophen-2-yl)-1,2,3,4-tetrahydroisoquinoline-4-carboxamide] | 7.3 (≈ 17.1 µM) | 53.6 (≈ 126 µM)
6 | COCCN1C(=O)c2ccccc2C(C(=O)Nc2cccc(-n3cncn3)c2)C1c1cccs1 (stereo not drawn) [C200, N-(3-(1H-1,2,4-triazol-1-yl)phenyl)-2-(2-methoxyethyl)-1-oxo-3-(thiophen-2-yl)-1,2,3,4-tetrahydroisoquinoline-4-carboxamide] | 0.32 (≈ 0.676 µM) | 59.4 (≈ 125 µM)
7 | COCCN1C(=O)c2ccccc2C(C(=O)Nc2cccc(OC)c2)C1CSC (stereo not drawn) [C82, 2-(2-methoxyethyl)-N-(3-methoxyphenyl)-3-(methylthiomethyl)-1-oxo-1,2,3,4-tetrahydroisoquinoline-4-carboxamide] | 12 (≈ 28.9 µM) | 72 (≈ 174 µM)
8 | COCCN1C(=O)c2ccccc2C(C(=O)Nc2cc(-c3ccccc3)nn2C)C1c1cccs1 (stereo not drawn) [C208, 2-(2-methoxyethyl)-N-(1-methyl-3-phenyl-1H-pyrazol-5-yl)-1-oxo-3-(thiophen-2-yl)-1,2,3,4-tetrahydroisoquinoline-4-carboxamide] | 0.39 (≈ 0.801 µM) | 7.94 (≈ 16.3 µM)
9 | CCOCCN1C(=O)c2ccccc2C(C(=O)Nc2cccc(OC)c2)C1c1cccs1 (stereo not drawn) [C65, 2-(2-Ethoxyethyl)-N-(3-methoxyphenyl)-1-oxo-3-(thiophen-2-yl)-1,2,3,4-tetrahydroisoquinoline-4-carboxamide] | 1.76 (≈ 3.91 µM) | 90.2 (≈ 200 µM)
10 | COCCn1c(-c2cccs2)c(C(=O)Nc2cccc(OC)c2)c2ccccc2c1=O [C32, 2-(2-methoxyethyl)-N-(3-methoxyphenyl)-1-oxo-3-(thiophen-2-yl)-1,2-dihydroisoquinoline-4-carboxamide] | 37.3 (≈ 85.8 µM) | 73.7 (≈ 170 µM)
11 | COCCN1C(=O)c2ccccc2C(C(=O)Nc2cccc(OC)c2)C1c1cc(C)on1 (stereo not drawn) [C103, 2-(2-methoxyethyl)-N-(3-methoxyphenyl)-3-(5-methylisoxazol-3-yl)-1-oxo-1,2,3,4-tetrahydroisoquinoline-4-carboxamide] | 40.4 (≈ 92.7 µM) | 75.2 (≈ 173 µM)
12 | COCCN1C(=O)c2ccccc2C(C(=O)Nc2cccc(OC)c2)C1C (stereo not drawn) [C69, 2-(2-methoxyethyl)-N-(3-methoxyphenyl)-3-methyl-1-oxo-1,2,3,4-tetrahydroisoquinoline-4-carboxamide] | 8.7 (≈ 23.6 µM) | 
13 | COCCN1C(=O)c2cc(OC)c(OC)cc2C(C(=O)Nc2cccc(OC)c2)C1c1cccs1 (stereo not drawn) [C75, 6,7-dimethoxy-2-(2-methoxyethyl)-N-(3-methoxyphenyl)-1-oxo-3-(thiophen-2-yl)-1,2,3,4-tetrahydroisoquinoline-4-carboxamide] | 43.1 (≈ 86.9 µM) | 
14 | COCCN1C(=O)c2ccccc2C(C(=O)Nc2cc(-c3ccccc3)[nH]n2)C1c1cccs1 (stereo not drawn) [C182, 2-(2-methoxyethyl)-1-oxo-N-(5-phenyl-1H-pyrazol-3-yl)-3-(thiophen-2-yl)-1,2,3,4-tetrahydroisoquinoline-4-carboxamide] | 21.8 (≈ 46.1 µM) | 
15 | CCC1C(C(=O)Nc2cccc(OC)c2)c2ccccc2C(=O)N1CCOC (stereo not drawn) [C58, 3-Ethyl-2-(2-methoxyethyl)-N-(3-methoxyphenyl)-1-oxo-1,2,3,4-tetrahydroisoquinoline-4-carboxamide] | 1.81 (≈ 4.73 µM) | 
16 | COCCN1C(=O)c2ccccc2C(C(=O)Nc2cccc(OC)c2)C1c1cccn1C (stereo not drawn) [C106, 2-(2-methoxyethyl)-N-(3-methoxyphenyl)-3-(1-methyl-1H-pyrrol-2-yl)-1-oxo-1,2,3,4-tetrahydroisoquinoline-4-carboxamide] | 44.4 (≈ 103 µM) | 

Row | SMILES | IC50 [1] [µg/mL] | CC50 at 72 h [2] [µg/mL]
17 | COCCN1C(=O)c2ccccc2C(C(=O)Nc2cccc(OC)c2)C1c1c(F)cccc1F (stereo not drawn) [C10, 3-(2,6-Difluorophenyl)-2-(2-methoxyethyl)-N-(3-methoxyphenyl)-1-oxo-1,2,3,4-tetrahydroisoquinoline-4-carboxamide] | 32.1 (≈ 68.9 µM) | 
18 | COCCN1C(=O)c2ccc(C)cc2C(C(=O)Nc2cccc(OC)c2)C1c1cccs1 (stereo not drawn) [C40, 2-(2-Methoxyethyl)-N-(3-methoxyphenyl)-6-methyl-1-oxo-3-(thiophen-2-yl)-1,2,3,4-tetrahydroisoquinoline-4-carboxamide] | 7.76 (≈ 17.2 µM) | 
19 | COCCN1C(=O)c2ccccc2C(C(=O)Nc2cc(C3CC3)nn2C)C1c1cccs1 (stereo not drawn) [C197, N-(3-cyclopropyl-1-methyl-1H-pyrazol-5-yl)-2-(2-methoxyethyl)-1-oxo-3-(thiophen-2-yl)-1,2,3,4-tetrahydroisoquinoline-4-carboxamide] | 4 (≈ 8.88 µM) | 
20 | CCN1CCCC1CN1C(=O)c2ccccc2C(C(=O)Nc2cccc(OC)c2)C1c1cccs1 (stereo not drawn) [C67, 2-((1-ethylpyrrolidin-2-yl)methyl)-N-(3-methoxyphenyl)-1-oxo-3-(thiophen-2-yl)-1,2,3,4-tetrahydroisoquinoline-4-carboxamide] | 10.4 (≈ 21.3 µM) | 
21 | COCCN1C(=O)c2ccccc2C(C(=O)Nc2onc(C)c2C)C1c1cccs1 (stereo not drawn) [C220, N-(3,4-dimethylisoxazol-5-yl)-2-(2-methoxyethyl)-1-oxo-3-(thiophen-2-yl)-1,2,3,4-tetrahydroisoquinoline-4-carboxamide] | 2.67 (≈ 6.27 µM) | 
22 | COCCN1C(=O)c2ccccc2C(C(=O)NCCOc2ccccc2)C1c1cccs1 (stereo not drawn) [C34, 2-(2-Methoxyethyl)-1-oxo-N-(2-phenoxyethyl)-3-(thiophen-2-yl)-1,2,3,4-tetrahydroisoquinoline-4-carboxamide] | 16.5 (≈ 36.7 µM) | 
23 | COCCN1C(=O)c2ccccc2C(C(=O)Nc2cccc(OC)c2)C1C#N (stereo not drawn) [C143, 3-cyano-2-(2-methoxyethyl)-N-(3-methoxyphenyl)-1-oxo-1,2,3,4-tetrahydroisoquinoline-4-carboxamide] | 24.3 (≈ 64 µM) | 
24 | COCCN1C(=O)c2ccccc2C(C(=O)Nc2cc[nH]n2)C1c1cccs1 (stereo not drawn) [C184, 2-(2-methoxyethyl)-1-oxo-N-(1H-pyrazol-3-yl)-3-(thiophen-2-yl)-1,2,3,4-tetrahydroisoquinoline-4-carboxamide] | 55 (≈ 139 µM) | 
25 | COc1cccc(NC(=O)C2c3ccccc3C(=O)N(Cc3ccco3)C2c2cccs2)c1 (stereo not drawn) [C4, 2-(Furan-2-ylmethyl)-N-(3-methoxyphenyl)-1-oxo-3-(thiophen-2-yl)-1,2,3,4-tetrahydroisoquinoline-4-carboxamide] | 41.5 (≈ 90.6 µM) | 
26 | COCCN1C(=O)c2ccccc2C(C(=O)Nc2nc(C)co2)C1c1cccs1 (stereo not drawn) [C154, 2-(2-methoxyethyl)-N-(4-methyloxazol-2-yl)-1-oxo-3-(thiophen-2-yl)-1,2,3,4-tetrahydroisoquinoline-4-carboxamide] | 3.68 (≈ 8.94 µM) | 
27 | COCCN1C(=O)c2ccccc2C(C(=O)Nc2ccc3occc3c2)C1c1cccs1 (stereo not drawn) [C195, N-(benzofuran-5-yl)-2-(2-methoxyethyl)-1-oxo-3-(thiophen-2-yl)-1,2,3,4-tetrahydroisoquinoline-4-carboxamide] | 0.13 (≈ 0.291 µM) | 
28 | COCCN1C(=O)c2cc(C(F)(F)F)ccc2C(C(=O)Nc2cccc(OC)c2)C1c1cccs1 (stereo not drawn) [C92, 2-(2-methoxyethyl)-N-(3-methoxyphenyl)-1-oxo-3-(thiophen-2-yl)-7-(trifluoromethyl)-1,2,3,4-tetrahydroisoquinoline-4-carboxamide] | 7.04 (≈ 14 µM) | 
29 | COCCN1C(=O)c2ccc(Cl)cc2C(C(=O)Nc2cccc(OC)c2)C1c1cccs1 (stereo not drawn) [C55, 6-chloro-2-(2-methoxyethyl)-N-(3-methoxyphenyl)-1-oxo-3-(thiophen-2-yl)-1,2,3,4-tetrahydroisoquinoline-4-carboxamide] | 43 (≈ 91.3 µM) | 
30 | COCCN1C(=O)c2ccccc2C(C(=O)Nc2ccc(Cl)c(Cl)c2)C1c1cccs1 (stereo not drawn) [C87, N-(3,4-dichlorophenyl)-2-(2-methoxyethyl)-1-oxo-3-(thiophen-2-yl)-1,2,3,4-tetrahydroisoquinoline-4-carboxamide] | 0.15 (≈ 0.316 µM) | 
31 | COCCN1C(=O)c2ccccc2C(C(=O)Nc2ccc(Cl)cc2N)C1c1cccs1 (stereo not drawn) [C144, N-(2-amino-4-chlorophenyl)-2-(2-methoxyethyl)-1-oxo-3-(thiophen-2-yl)-1,2,3,4-tetrahydroisoquinoline-4-carboxamide] | 5.16 (≈ 11.3 µM) | 
